From PubChem BioAssay AID1919013 (Molecular Pharmacology Branch, DTP, NCI, 2023)
pIC50: −log10 of the molar value. Where “and” joins values, the source holds several entries; their conditions need not be identical. Equal values may be shown once.

Test system: LG0703-F498-PDC complex spheroid growth
Assay: Anticancer human tumor LG0703-F498-PDC patient-derived lung adenocarcinoma cell line growth inhibition [AhR]
Conditions: for viability, T/C: stronger effect = lower value
In short: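 Spheroids combined tumor cells with HUVEC endothelial cells and human MSCs as stroma. AhR antagonists were paired with standard or investigational drugs, each dosed in half-log steps down from near clinical Cmax, or from 10 microM where Cmax was unknown.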

[1] = curve of first compound, second compound 0.1 µM
[2] = curve of first compound, second compound 0.316 µM
[3] = curve of first compound, second compound 1 µM
[4] = curve of first compound, second compound 3.16 µM
[5] = curve of first compound, second compound 10 µM
[6] = second compound 0.1 µM, first compound 0.0316 µM
[7] = second compound 0.1 µM, first compound 0.1 µM
[8] = second compound 0.1 µM, first compound 0.316 µM
[9] = second compound 0.1 µM, first compound 1 µM
[10] = second compound 0.1 µM, first compound 3.16 µM
[11] = second compound 0.1 µM, first compound 10 µM
[12] = second compound 0.316 µM, first compound 0.0316 µM
[13] = second compound 0.316 µM, first compound 0.1 µM
[14] = second compound 0.316 µM, first compound 0.316 µM
[15] = second compound 0.316 µM, first compound 1 µM
[16] = second compound 0.316 µM, first compound 3.16 µM
[17] = second compound 0.316 µM, first compound 10 µM
[18] = second compound 1 µM, first compound 0.0316 µM
[19] = second compound 1 µM, first compound 0.1 µM
[20] = second compound 1 µM, first compound 0.316 µM
[21] = second compound 1 µM, first compound 1 µM
[22] = second compound 1 µM, first compound 3.16 µM
[23] = second compound 1 µM, first compound 10 µM
[24] = second compound 3.16 µM, first compound 0.0316 µM
[25] = second compound 3.16 µM, first compound 0.1 µM
[26] = second compound 3.16 µM, first compound 0.316 µM
[27] = second compound 3.16 µM, first compound 1 µM
[28] = second compound 3.16 µM, first compound 3.16 µM
[29] = second compound 3.16 µM, first compound 10 µM
[30] = second compound 10 µM, first compound 0.0316 µM
[31] = second compound 10 µM, first compound 0.1 µM
[32] = second compound 10 µM, first compound 0.316 µM
[33] = second compound 10 µM, first compound 1 µM
[34] = second compound 10 µM, first compound 3.16 µM
[35] = second compound 10 µM, first compound 10 µM
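Further: luminescence taken as a proxy for viable cell amount.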
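Wherever viability, T/C is given: percent of DMSO vehicle control where 100% means growth equal to vehicle.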

For CCN(c1cc(-c2ccc(CN3CCOCC3)cc2)cc(C(=O)NCc2c(C)cc(C)[nH]c2=O)c1C)C1CCOCC1 + Cc1ccccc1N=Nc1ccc(NC(=O)c2ccnn2C)c(C)c1, the pIC50 [1] was < 5.52, the pIC50 [2] was < 5.52 and the pIC50 [3] was < 5.52. The pIC50 [4] was < 5.52, the pIC50 [5] was < 5.52 and the viability, T/C (second compound 0.1 µM, first compound 0.00949 µM) was 97.8%. It also gave a viability, T/C (second compound 0.1 µM, first compound 0.03 µM) of 104%, a viability, T/C (second compound 0.1 µM, first compound 0.0949 µM) of 104% and a viability, T/C (second compound 0.1 µM, first compound 0.3 µM) of 107%. For the same molecule, the viability, T/C (second compound 0.1 µM, first compound 0.949 µM) was 112%, the viability, T/C (second compound 0.1 µM, first compound 3 µM) was 118% and the viability, T/C (second compound 0.316 µM, first compound 0.00949 µM) was 94.3%. The viability, T/C (second compound 0.316 µM, first compound 0.03 µM) was 106%, the viability, T/C (second compound 0.316 µM, first compound 0.0949 µM) was 95% and the viability, T/C (second compound 0.316 µM, first compound 0.3 µM) was 100%. For the same molecule, the viability, T/C (second compound 0.316 µM, first compound 0.949 µM) was 102%, the viability, T/C (second compound 0.316 µM, first compound 3 µM) was 106% and the viability, T/C (second compound 1 µM, first compound 0.00949 µM) was 97.7%. It also gave a viability, T/C (second compound 1 µM, first compound 0.03 µM) of 93.2%, a viability, T/C (second compound 1 µM, first compound 0.0949 µM) of 115% and a viability, T/C (second compound 1 µM, first compound 0.3 µM) of 92%. It also gave a viability, T/C (second compound 1 µM, first compound 0.949 µM) of 97.3%, a viability, T/C (second compound 1 µM, first compound 3 µM) of 99.8% and a viability, T/C (second compound 3.16 µM, first compound 0.00949 µM) of 95.9%. The viability, T/C (second compound 3.16 µM, first compound 0.03 µM) was 99.9%, the viability, T/C (second compound 3.16 µM, first compound 0.0949 µM) was 102% and the viability, T/C (second compound 3.16 µM, first compound 0.3 µM) was 94.2%. It also gave a viability, T/C (second compound 3.16 µM, first compound 0.949 µM) of 87.1%, a viability, T/C (second compound 3.16 µM, first compound 3 µM) of 101% and a viability, T/C (second compound 10 µM, first compound 0.00949 µM) of 81.9%. The viability, T/C (second compound 10 µM, first compound 0.03 µM) was 86.1%, the viability, T/C (second compound 10 µM, first compound 0.0949 µM) was 96.4% and the viability, T/C (second compound 10 µM, first compound 0.3 µM) was 86.1%. The viability, T/C (second compound 10 µM, first compound 0.949 µM) was 82.2% and the viability, T/C (second compound 10 µM, first compound 3 µM) was 98.5%.

For Nc1ncn(C2CC(O)C(CO)S2)c(=O)n1 (configuration not stated), the viability, T/C (compound 0.000949 µM) was 103% and 105% and 108%, the viability, T/C (compound 0.003 µM) was 92.8% and 98.3% and 109% and the viability, T/C (compound 0.00949 µM) was 95.4% and 103% and 105%. The viability, T/C (compound 0.03 µM) was 99.9% and 97.8% and 99.8%, the viability, T/C (compound 0.0949 µM) was 113% (2×) and 107% and the viability, T/C (compound 0.3 µM) was 97.1% and 96.6% and 98.7%. The pIC50 (curve of compound) was < 6.52.

CC(C)c1c(-c2ccccc2)nc2c(C#N)c[nH]n2c1=O + Cc1ccccc1N=Nc1ccc(NC(=O)c2ccnn2C)c(C)c1 was tested, and the pIC50 [1] was < 5.00, the pIC50 [2] was < 5.00 and the pIC50 [3] was < 5.00. The pIC50 [4] was < 5.00, the pIC50 [5] was < 5.00 and the viability, T/C [6] was 95.3%. It also gave a viability, T/C [7] of 88.1%, a viability, T/C [8] of 94.9% and a viability, T/C [9] of 98.5%. It also gave a viability, T/C [10] of 112%, a viability, T/C [11] of 102% and a viability, T/C [12] of 97.4%. For the same molecule, the viability, T/C [13] was 85.6%, the viability, T/C [14] was 85.5% and the viability, T/C [15] was 78.8%. It also gave a viability, T/C [16] of 95.9%, a viability, T/C [17] of 92.1% and a viability, T/C [18] of 88.1%. For the same molecule, the viability, T/C [19] was 90.4%, the viability, T/C [20] was 94.7% and the viability, T/C [21] was 89.5%. It also gave a viability, T/C [22] of 87.6%, a viability, T/C [23] of 84.1% and a viability, T/C [24] of 78%. For the same molecule, the viability, T/C [25] was 79%, the viability, T/C [26] was 84.5% and the viability, T/C [27] was 77.6%. It also gave a viability, T/C [28] of 81.5%, a viability, T/C [29] of 86.8% and a viability, T/C [30] of 86.3%. It also gave a viability, T/C [31] of 75.6%, a viability, T/C [32] of 67.9% and a viability, T/C [33] of 82.8%. For the same molecule, the viability, T/C [34] was 81.7% and the viability, T/C [35] was 79.3%.

In the case of Nc1ccn(C2OC(CO)C(O)C2(F)F)c(=O)n1 (configuration not stated) + CC(CO)NC(=O)c1cc(-c2ccc(Cl)cc2)nn(-c2cnn(C)c2)c1=O, the pIC50 [1] was > 7.50, the pIC50 [2] was > 7.50 and the pIC50 [3] was > 7.50. For the same molecule, the pIC50 [4] was > 7.50, the pIC50 [5] was > 7.50 and the viability, T/C [6] was 43.6%. The viability, T/C [7] was 43.4%, the viability, T/C [8] was 39.1% and the viability, T/C [9] was 38.8%. The viability, T/C [10] was 35.7%, the viability, T/C [11] was 26.6% and the viability, T/C [12] was 43.3%. For the same molecule, the viability, T/C [13] was 41.7%, the viability, T/C [14] was 41.1% and the viability, T/C [15] was 38.3%. For the same molecule, the viability, T/C [16] was 28.4%, the viability, T/C [17] was 27.3% and the viability, T/C [18] was 46.7%. It also gave a viability, T/C [19] of 47.5%, a viability, T/C [20] of 39.9% and a viability, T/C [21] of 37.9%. For the same molecule, the viability, T/C [22] was 31%, the viability, T/C [23] was 27.1% and the viability, T/C [24] was 42.8%. For the same molecule, the viability, T/C [25] was 41.9%, the viability, T/C [26] was 41.9% and the viability, T/C [27] was 39.2%. For the same molecule, the viability, T/C [28] was 29.2%, the viability, T/C [29] was 23.9% and the viability, T/C [30] was 40%. It also gave a viability, T/C [31] of 40.5%, a viability, T/C [32] of 45% and a viability, T/C [33] of 34.5%. The viability, T/C [34] was 27.2% and the viability, T/C [35] was 23.7%.

Molecule COc1cccc2c1C(=O)c1c(O)c3c(c(O)c1C2=O)CC(O)(C(=O)CO)CC3OC1CC(N)C(O)C(C)O1 (configuration not stated) + Cc1cncc(-c2nc(NCCc3c[nH]c4ccccc34)c3ncn(C(C)C)c3n2)c1 has a pIC50 [1] of 6.24, a pIC50 [2] of 6.34 and a pIC50 [3] of 6.40. For the same molecule, the pIC50 [4] was > 7.50, the pIC50 [5] was > 7.50 and the viability, T/C [6] was 76.6%. It also gave a viability, T/C [7] of 74.6%, a viability, T/C [8] of 64% and a viability, T/C [9] of 36.8%. For the same molecule, the viability, T/C [10] was 5.61%, the viability, T/C [11] was 0.77% and the viability, T/C [12] was 79%. For the same molecule, the viability, T/C [13] was 77.8%, the viability, T/C [14] was 58.3% and the viability, T/C [15] was 29.8%. The viability, T/C [16] was 3.48%, the viability, T/C [17] was 0.76% and the viability, T/C [18] was 84.2%. The viability, T/C [19] was 79.9%, the viability, T/C [20] was 53.7% and the viability, T/C [21] was 27.1%. For the same molecule, the viability, T/C [22] was 1.11%, the viability, T/C [23] was 0.75% and the viability, T/C [24] was 41.6%. The viability, T/C [25] was 44.3%, the viability, T/C [26] was 39.5% and the viability, T/C [27] was 15.8%. The viability, T/C [28] was 0.78%, the viability, T/C [29] was 0.47% and the viability, T/C [30] was 2.11%. It also gave a viability, T/C [31] of 2.97%, a viability, T/C [32] of 4.27% and a viability, T/C [33] of 0.39%. It also gave a viability, T/C [34] of 0.31% and a viability, T/C [35] of 0.58%.
